The assay has as its system high voltage-activated (HVA) calcium channel currents in rat DRG neurons. It counts as cell-based.

With ω-agatoxin, the “further inhibition of the residual Ba2+ currents” value was determined as 20%.

(Values after publication PMC6128854 (Scientific Reports, 2018).)
